Experiment: gradient 5% acetonitrile 3 min, to 50% in 2 min, to 85% in 15 min, held 3 min, 100 µL/min
Details: column: Zorbax Extend-C18 2.1 x 50 mm; eluents: water / acetonitrile, 0.1% formic acid
Method in brief: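 Data were gathered over 3 months by HPLC coupled to a quadrupole time-of-flight mass spectrometer, operated in positive and negative ionization mode. Mixtures of ~100 pure standards ran on a Zorbax Extend-C18 column (2.1 × 50 mm, 1.8 μm) at 100 μL/min, with water and acetonitrile each containing 0.1% formic acid and dead and dwell volumes of 40 μL and 900 μL. Retention time was read from adduct peaks picked by computer and checked manually.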

SMILES | RP-LC retention time
O=C1CC(c2ccccc2)N(S(=O)(=O)c2cccc3nsnc23)CCCCCN1 (stereo unspecified) | 848 s
Cc1ccc(-n2c(N3CCCC(C(=O)Nc4ccc(F)c(F)c4)C3)nc3ccsc3c2=O)cc1 (stereo unspecified) | 1050 s
CCCCCn1c(=O)c2ccccc2n(Cc2nc(-c3ccccc3Cl)no2)c1=O | 1260 s
O=c1c2ccccc2c2ccccc2c(=O)n1Cc1ccco1 | 966 s
CNC(=O)c1cc(C)nc2ccc(C(C)C)cc12 | 596 s
CC1=C(c2ccccc2)S(=O)(=O)N=C1N1CCCN(C(=O)C2CC2)CC1 | 991 s
COc1ccccc1CN1CCc2nc(N3CCN(c4ccccc4F)CC3)ncc2C1 | 808 s
CC(C)OC(=O)CSc1nnc2c(S(=O)(=O)N3CCN(c4ccc(F)cc4)CC3)cccn12 | 917 s
COc1ccc(NC(=O)c2cccn(C)c2=O)cc1N1CCCC1=O | 618 s
COCCn1c(CC2CCN(S(=O)(=O)c3ccc(OC)cc3)C2)nc2cccnc21 (stereo unspecified) | 668 s
Cc1nn(-c2nc3ccccc3[nH]2)c2c1C(=O)CC(c1cccs1)C2 (stereo unspecified) | 967 s
CCc1nnc2ccc(-c3noc(Cc4ccc(Cl)cc4)n3)cn12 | 932 s
CCc1ccc(NC(=O)N(C)CC2CCOC2)cc1 (stereo unspecified) | 739 s
CCC1Oc2ccc(S(=O)(=O)N3CCC(C(=O)NC4CCCCCC4)CC3)cc2NC1=O (stereo unspecified) | 951 s
CC(=O)c1ccc(NC(=O)c2cnc(-c3ccc(F)cc3)nc2-c2ccncc2)cc1 | 837 s
CC1=C(c2ccccc2)S(=O)(=O)N=C1N1CCCN(C(=O)Nc2cccc(C#N)c2)CC1 | 814 s
Cc1[nH]c(C)c(S(=O)(=O)N2CCC(C(=O)Nc3cccc(F)c3)CC2)c1C(=O)N1CCCC1 | 720 s
Cc1noc(COC2CCCN(C(=O)C3(c4ccccc4)CC3)C2)n1 (stereo unspecified) | 791 s
CC(=O)c1cccc(NC(=O)COc2cc(C)nc(N3CCCC3)n2)c1 | 616 s
Cc1ccc(CNC(=O)C2(C)CN(S(C)(=O)=O)CC(=O)N2Cc2ccc(N(C)C)cc2)cc1 (stereo unspecified) | 668 s
Cc1ccc(-c2ncccc2CNS(=O)(=O)c2ccc(C)c(F)c2)cc1 | 769 s
CCC(=O)N1CCC2(CC1)c1nccn1-c1ccccc1CN2CC(C)C | 632 s
CCOCCCNC(=O)CN1c2ccc(F)cc2-c2ccccc2S1(=O)=O | 820 s

SMILES | RP-LC retention time
CCOc1ccc(NC(=O)C2CCCN(C)C2)cc1 (stereo unspecified) | 643 s
CCC1CCCCN1C(=O)c1cnc2nc(C)ccc2c1Nc1cccc(C(=O)OC)c1 (stereo unspecified) | 653 s
CCCn1c(C)cnc1C1CN(S(=O)(=O)Cc2ccccc2)C1 | 652 s
CNC(=O)[C@@H]1CN(C(=O)Cc2ccsc2)C[C@H]1c1n[nH]c(C)n1 | 565 s
COc1cccc(-n2c(=O)c(C(=O)Nc3ccccc3F)c(O)c3cccnc32)c1 | 1200 s
O=C(Nc1cc(F)ccc1F)N1CCc2nc[nH]c2C1 | 571 s
CC(=O)N1CCc2nn(CC(=O)Nc3ccc(Cl)cc3F)c(=O)cc2C1 | 663 s
COc1ccc(CN2CCC3(CC2)CC(C)(O)CCO3)cc1OC (stereo unspecified) | 583 s
Cc1cccc(C(=O)N2C[C@@H](F)C[C@H]2C(=O)N2CCOCC2)c1 | 620 s
CCn1nc2ccc(S(=O)(=O)N3CCC(C)CC3)cn2c1=O | 827 s
O=C(c1cccc(F)c1)N1CCC(n2nc(-c3ccsc3)ccc2=O)CC1 | 807 s
CCOc1ccc(S(=O)(=O)N2CCCC(C(=O)NCCOC)C2)cc1C (stereo unspecified) | 769 s
CCCc1nc(-c2c(C)cc(C)nc2NC(=O)c2cc(F)cc(F)c2)no1 | 938 s
Cc1nc(-c2nnn(-c3ccc(F)cc3)c2C)no1 | 789 s
CCOCCCNC(=O)c1cnn2c(C(F)(F)F)cc(-c3ccccc3)nc12 | 1010 s
O=C(NC1CCCc2c1[nH]c1ccc(Cl)cc21)c1ccncc1 (stereo unspecified) | 859 s
O=C(Nc1c(-c2ccc(F)cc2)nc2ccccn12)c1ccc(Br)cc1 | 716 s
COc1ccccc1N1CCN(c2nc3ccc(C)cc3cc2-c2noc(C)n2)CC1 | 732 s
Clc1ccccc1-c1noc(Cc2nnc(-c3ccccc3)o2)n1 | 978 s
Cc1ccc(-c2noc(Cc3nnc(-c4ccc(C)c(C)c4)o3)n2)cc1C | 1230 s
COc1ccc(OC)c(NC(=O)C2CCCN2S(=O)(=O)c2cc3c(cc2C)NC(=O)C(C)O3)c1 (stereo unspecified) | 830 s
COC(=O)c1c2c(nc3ccccc13)CCN(C(=O)Nc1ccccc1OC)C2 | 820 s
COc1cc(C(C)c2cc3c(cc2OCCO)OCO3)cc(OC)c1OC (stereo unspecified) | 798 s

SMILES | RP-LC retention time
Cc1cccc(C)c1Nc1c(-c2ccc(Cl)cc2)nc2ncccn12 | 919 s
COC(=O)c1c(C)[nH]c(C(=O)N2CCCC(C(=O)NCc3ccc(OC(C)C)cc3)C2)c1C (stereo unspecified) | 812 s
CCCCS(=O)(=O)N1CC[C@H](CN(C)C(C)=O)[C@H](N(C)C)C1 | 584 s
O=C(NCc1nc(-c2ccc3oc(-c4ccccc4)nc3c2)no1)c1ccccc1 | 1010 s
Cc1ccc(Cn2nnc3cc(C(=O)N4CCN(c5ncccn5)CC4)ccc32)cc1 | 822 s
O=C(NCCc1cccs1)c1cccc2[nH]cc(CN3CCOCC3)c12 | 592 s
Cc1ccc2nc(CN3CCN(C(=O)Nc4ccc5c(c4)OCO5)CC3)oc2c1 | 684 s
Cc1csc(NC(=O)c2cc(Sc3nncn3C)ccc2N)n1 | 700 s
COc1cc(-c2ccnc3nc(CCc4ccccc4)nn23)cc(OC)c1OC | 856 s
Cc1ccc(-n2ncc3c(=O)n(Cc4nc(-c5ccc(OC(F)(F)F)cc5)no4)cnc32)cc1 | 1200 s
CC(C)C(NC(=O)c1ccco1)c1nc(-c2ccc3c(c2)ncn3C)no1 (stereo unspecified) | 650 s
CCc1ccc(-n2nnc(C(=O)NCCOC)c2-c2ccncc2)cc1 | 725 s
c1ccc(C2(c3nc(-c4ccc(-n5cccn5)nc4)no3)CC2)cc1 | 1240 s
CCOC(=O)N1CCN(Cc2c(O)ccc3ccccc23)CC1 | 691 s
O=C(NC1c2ccccc2-c2ccccc21)c1cccc([N+](=O)[O-])c1 | 961 s
CC(C)CCNC(=O)Cn1c(=O)c(S(=O)(=O)c2ccccc2)cc2ccccc21 | 866 s
COc1ccc([N+](=O)[O-])cc1NS(=O)(=O)c1ccc(C)cc1 | 961 s
COc1ccc(-c2nnc(-c3cc(S(=O)(=O)N4CCSCC4)ccc3Cl)o2)cc1 | 1080 s
O=C1c2ccc(O)cc2O[C@H](c2cc(O)c(O)c(O)c2)[C@H]1O | 617 s
O=C(Nc1cnn(-c2ncncc2N2CCOCC2)c1)C1CCCC1 | 624 s
COCCn1cc2c3c(cccc31)CN(C(=O)Nc1cc(F)ccc1F)CC2 | 938 s
O=C(Cn1ccc2sccc2c1=O)N1CCN(c2ccccc2)CC1 | 724 s
CCOc1ccc(NC(=O)Cn2ncc3c(c2=O)N(C2CC2)C(=O)CS3)cc1 | 671 s

SMILES | RP-LC retention time
COc1ccc(CCNC(=O)N2CCC(c3nnc(C(F)(F)F)o3)CC2)cc1 | 764 s
Cc1cc(C)n2nc(SCC(=O)NC3CCC(C)CC3)nc2n1 (stereo unspecified) | 752 s
c1cc2c(cc1-c1nnc(C3CCC3)o1)OCO2 | 865 s
CCc1nnc2ccc(S(=O)(=O)Nc3cccc(F)c3)cn12 | 714 s
Cc1ccc(CNC(=O)CSc2ccc(N3CCCC(C(=O)NC4CC4)C3)nn2)cc1 (stereo unspecified) | 643 s
N#Cc1cccc(CN2C[C@@H]3C(=O)N(CCc4ccccc4)C(=O)[C@@H]3C2)c1 | 849 s
CCC(Sc1ncnc2c1cnn2-c1ccc(F)cc1)C(=O)OC (stereo unspecified) | 1170 s
CCOC(=O)c1nn(-c2cc(C(=O)OC)cc(C(=O)OC)c2)cc1O | 769 s
O=C(NC1CC1)c1c2c(nc3ccccc13)CCCC2 | 585 s
O=C(Nc1ccc(F)cc1)C1CCCN(C(=O)c2ccc(F)c(F)c2)C1 (stereo unspecified) | 860 s
COc1cc(NC(=O)c2cn3c(n2)CCCC3)cc(OC)c1 | 614 s
Cn1c(=O)c2c3c(cnc2n(C)c1=O)C(=O)CCC3 | 704 s
Cn1cccc1C(=O)NC1CCCN(c2cc(N3CCCC3)ncn2)C1 (stereo unspecified) | 639 s
CCS(=O)(=O)Nc1cccc(OCc2nnc(-c3ccc(C)cc3)o2)c1 | 867 s
COC(=O)c1cc(OCC(=O)Nc2ccc(OC)c(OC)c2)c2cc(F)ccc2n1 | 756 s
Cc1nc(C(=O)OCc2cc(-c3cccs3)on2)cs1 | 785 s
CCn1nccc1-c1cccc(-c2noc(-c3ccc(C)cc3)n2)c1 | 1310 s
CN(CCc1ccc(Cl)c(Cl)c1)CCN1CCCC1 | 646 s
CCOC(=O)c1csc(NC(=O)c2ccn(CC)n2)n1 | 702 s
CN1C(=O)C2CCCCN2c2ccc(C(=O)NCCc3c[nH]c4ccccc34)cc21 (stereo unspecified) | 871 s
COc1cc(CSc2nc(CC(=O)NCc3cccs3)cs2)cc(OC)c1 | 873 s
O=C(CCn1nnc2cc(-c3noc(-c4ccc(F)cc4)n3)ccc21)N1CCCC1 | 903 s
